Laboratory results published in PubChem BioAssay (NCI).
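Method: 48-hour compound exposure of cells in 96-well plates, five concentrations, linear interpolation of endpoints. Abbreviation: GI50, concentration required for 50% inhibition of growth. Definition used: TGI = concentration required for complete inhibition of growth.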

Columns and labels:
Experiment in all cases: NCI anticancer screen, dose series, 48 h
MCF7 breast = system: MCF7 breast
HT29 colon = system: HT29 colon
ACHN renal = system: ACHN renal
SN12C renal = system: SN12C renal
HOP-92 NSCLC = system: HOP-92 NSCLC
HOP-62 NSCLC = system: HOP-62 NSCLC
OVCAR-4 ovarian = system: OVCAR-4 ovarian
T-47D breast = system: T-47D breast
SK-OV-3 ovarian = system: SK-OV-3 ovarian
MDA-MB-468 breast = system: MDA-MB-468 breast
NCI-H226 lung = system: NCI-H226 lung
BT-549 breast = system: BT-549 breast
K-562 leukemia = system: K-562 leukemia
SNB-19 CNS = system: SNB-19 CNS
M14 melanoma = system: M14 melanoma
TK-10 renal = system: TK-10 renal
MDA-MB-435 = system: MDA-MB-435
HS 578T breast = system: HS 578T breast
PC-3 prostate = system: PC-3 prostate
786-0 renal = system: 786-0 renal
HCT-15 colon = system: HCT-15 colon
NCI-H460 lung = system: NCI-H460 lung
LOX IMVI melanoma = system: LOX IMVI melanoma
NCI/ADR-RES ovarian = system: NCI/ADR-RES ovarian
CCRF-CEM leukemia = system: CCRF-CEM leukemia
SF-295 CNS = system: SF-295 CNS
RXF 393 renal = system: RXF 393 renal
NCI-H522 lung = system: NCI-H522 lung
HCC-2998 colon = system: HCC-2998 colon
U251 CNS = system: U251 CNS
SR leukemia = system: SR leukemia
A549 NSCLC = system: A549 NSCLC
IGROV1 ovarian = system: IGROV1 ovarian
HCT-116 colon = system: HCT-116 colon
MOLT-4 leukemia = system: MOLT-4 leukemia
OVCAR-3 ovarian = system: OVCAR-3 ovarian
OVCAR-5 ovarian = system: OVCAR-5 ovarian
NCI-H23 lung = system: NCI-H23 lung
DU-145 prostate = system: DU-145 prostate
SF-539 CNS = system: SF-539 CNS
SF-268 CNS = system: SF-268 CNS
CAKI-1 renal = system: CAKI-1 renal
UACC-257 melanoma = system: UACC-257 melanoma
EKVX NSCLC = system: EKVX NSCLC
MALME-3M melanoma = system: MALME-3M melanoma
HL-60(TB) leukemia = system: HL-60(TB) leukemia
RPMI-8226 leukemia = system: RPMI-8226 leukemia
SK-MEL-5 melanoma = system: SK-MEL-5 melanoma
SW-620 colon = system: SW-620 colon
UACC-62 melanoma = system: UACC-62 melanoma
OVCAR-8 ovarian = system: OVCAR-8 ovarian
KM12 colon = system: KM12 colon
COLO 205 colon = system: COLO 205 colon
SK-MEL-28 melanoma = system: SK-MEL-28 melanoma
A498 renal = system: A498 renal

CC[C@]12C=CCN3CC[C@@]4(c5ccc(OC)cc5N(C)[C@H]4[C@@](O)(C(=O)OC)[C@@H]1OC(=O)CCCC[P+](C1CCCCC1)(C1CCCCC1)C1CCCCC1)[C@@H]32
GI50 (MCF7 breast): 1.05 µM | TGI (MCF7 breast): 8.18 µM | GI50 (HT29 colon): 1.43 µM | TGI (HT29 colon): 3.88 µM | GI50 (ACHN renal): 16 µM | TGI (ACHN renal): 29.6 µM | GI50 (SN12C renal): 2.77 µM | TGI (SN12C renal): 9.91 µM | GI50 (HOP-92 NSCLC): 1.02 µM | TGI (HOP-92 NSCLC): 3.9 µM | GI50 (HOP-62 NSCLC): 3.9 µM | TGI (HOP-62 NSCLC): 13.8 µM | GI50 (OVCAR-4 ovarian): 2.73 µM | TGI (OVCAR-4 ovarian): 13.8 µM | GI50 (T-47D breast): 0.92 µM | TGI (T-47D breast): 11.2 µM | GI50 (SK-OV-3 ovarian): 2.28 µM | TGI (SK-OV-3 ovarian): 6.94 µM | GI50 (MDA-MB-468 breast): 0.378 µM | TGI (MDA-MB-468 breast): 1.54 µM | GI50 (NCI-H226 lung): 4.41 µM | TGI (NCI-H226 lung): 17.9 µM | GI50 (BT-549 breast): 2.45 µM | TGI (BT-549 breast): 6.55 µM | GI50 (K-562 leukemia): 0.983 µM | TGI (K-562 leukemia): 16.2 µM | GI50 (SNB-19 CNS): 1.92 µM | TGI (SNB-19 CNS): 11.3 µM | GI50 (M14 melanoma): 2.2 µM | TGI (M14 melanoma): 12 µM | GI50 (TK-10 renal): 3.08 µM | TGI (TK-10 renal): 14.9 µM | GI50 (MDA-MB-435): 2.62 µM | TGI (MDA-MB-435): 10.7 µM | GI50 (HS 578T breast): 2.61 µM | TGI (HS 578T breast): 8.67 µM | GI50 (PC-3 prostate): 1.46 µM | TGI (PC-3 prostate): 10.4 µM | GI50 (786-0 renal): 5.43 µM | TGI (786-0 renal): 18.9 µM | GI50 (HCT-15 colon): 16.1 µM | TGI (HCT-15 colon): 30.5 µM | GI50 (NCI-H460 lung): 2.71 µM | TGI (NCI-H460 lung): 12.2 µM | GI50 (LOX IMVI melanoma): 2.9 µM | TGI (LOX IMVI melanoma): 10.9 µM | GI50 (NCI/ADR-RES ovarian): 56.5 µM | TGI (NCI/ADR-RES ovarian): > 100 µM | GI50 (CCRF-CEM leukemia): 2.55 µM | TGI (CCRF-CEM leukemia): 10.5 µM | GI50 (SF-295 CNS): 4.4 µM | TGI (SF-295 CNS): 16.1 µM | GI50 (RXF 393 renal): 1.24 µM | TGI (RXF 393 renal): 5.4 µM | GI50 (NCI-H522 lung): 0.643 µM | TGI (NCI-H522 lung): 6.79 µM | GI50 (HCC-2998 colon): 1.31 µM | TGI (HCC-2998 colon): 10.3 µM | GI50 (U251 CNS): 0.639 µM | TGI (U251 CNS): 12.4 µM | GI50 (SR leukemia): 1.39 µM | TGI (SR leukemia): 5.36 µM | GI50 (A549 NSCLC): 3.13 µM | TGI (A549 NSCLC): 13.1 µM | GI50 (IGROV1 ovarian): 1.36 µM | TGI (IGROV1 ovarian): 4.66 µM | GI50 (HCT-116 colon): 2.94 µM | TGI (HCT-116 colon): 12 µM | GI50 (MOLT-4 leukemia): 1.72 µM | TGI (MOLT-4 leukemia): 7.9 µM | GI50 (OVCAR-3 ovarian): 1.93 µM | TGI (OVCAR-3 ovarian): 10.9 µM | GI50 (OVCAR-5 ovarian): 3.19 µM | TGI (OVCAR-5 ovarian): 12.1 µM | GI50 (NCI-H23 lung): 2.34 µM | TGI (NCI-H23 lung): 8.99 µM | GI50 (DU-145 prostate): 3.65 µM | TGI (DU-145 prostate): 14.8 µM | GI50 (SF-539 CNS): 2.85 µM | TGI (SF-539 CNS): 11 µM | GI50 (SF-268 CNS): 3.17 µM | TGI (SF-268 CNS): 12.9 µM | GI50 (CAKI-1 renal): 16.7 µM | TGI (CAKI-1 renal): 30.6 µM | GI50 (UACC-257 melanoma): 1.57 µM | TGI (UACC-257 melanoma): 3.9 µM | GI50 (EKVX NSCLC): 3.13 µM | TGI (EKVX NSCLC): 16.2 µM | GI50 (MALME-3M melanoma): 1.63 µM | TGI (MALME-3M melanoma): 3.7 µM | GI50 (HL-60(TB) leukemia): 0.293 µM | TGI (HL-60(TB) leukemia): 1.41 µM | GI50 (RPMI-8226 leukemia): 0.412 µM | TGI (RPMI-8226 leukemia): 2.01 µM | GI50 (SK-MEL-5 melanoma): 1.88 µM | TGI (SK-MEL-5 melanoma): 3.74 µM | GI50 (SW-620 colon): 2.75 µM | TGI (SW-620 colon): 15.1 µM | GI50 (UACC-62 melanoma): 1.53 µM | TGI (UACC-62 melanoma): 3.64 µM | GI50 (OVCAR-8 ovarian): 2.93 µM | TGI (OVCAR-8 ovarian): 11.9 µM | GI50 (KM12 colon): 1.72 µM | TGI (KM12 colon): 6.34 µM | GI50 (COLO 205 colon): 0.377 µM | TGI (COLO 205 colon): 1.23 µM | GI50 (SK-MEL-28 melanoma): 1.38 µM | TGI (SK-MEL-28 melanoma): 5.25 µM | GI50 (A498 renal): 13.3 µM | TGI (A498 renal): 27.4 µM
